In ChEMBL document CHEMBL1128304, “The synthesis of N-hydroxy-N'-phenyloctanediamide and its inhibitory effect on proliferation of AXC rat prostate cancer cells” (1995):

Tests used:
[1] = test system: Erythroleukemia cell line; test: Percent of murine erythroleukemia cells that became benzidine reactive after administration (2.5 uM); type: functional, Mus musculus
HL-60 = test: Percent of HL-60 cells (from human acute promyelocytic leukemia) to develop the ability to reduce nitroblue tetrazolium after administration (1 uM); type: functional; design: scale not given: the % may be the effect or the level left
T/5 = test: Tested for morphological alterations in T/5 cells after administration along with DMSO (0.1%); type: functional, cell-based; conditions: Rattus norvegicus

SMILES: O=C(CCCCCCC(=O)Nc1ccccc1)NO [VORINOSTAT]
- Activity [1]: 70%
- Activity (HL-60): 21%
- Activity (T/5): No morphological alterations observed
